From US20170027954A1, “METHODS OF ENHANCING ANTIBODY-DEPENDENT CELLULAR CYTOTOXICITY” (VENTIRX PHARMACEUTICALS, INC., priority 2010, published 2017)

Columns and labels:
Format in all cases: cell-based, human
[1] = test system: breast cancer cell line SKBR3; assay: Herceptin-mediated ADCC of SKBR3 cells by PBMC effector cells; details: PBMCs activated with the ADCC enhancer; FIG. 3
Protocol: (§1) Stimulation of PBMCs: Human Peripheral blood mononuclear cells (PBMCs) were isolated by Ficoll™ density gradient centrifugation and resuspended in RPMI containing 2% heat-inactivated FBS. PBMCs at a concentration of 1 to 3 million cells per mL were incubated with 10-500 nM ADCC enhancer in a humidified CO2 incubator for 18-72 hrs. Activated PBMCs were then used as effector cells in NK and ADCC assays. NK and ADCC Assays: PBMCs activated with the ADCC enhancer were tested for the ability to enhance killing of the NK sensitive target cell line K562 or various tumor cells coated with monoclonal antibodies. Target cells were labeled with the fluorescent dye Calcein AM for 1 hour at 37° C. in a dark humidified CO2 incubator. […] Activated effector cells and labeled target cells were incubated in 96-well tissue culture plates at for 4 hours at 37° C. in a dark humidified CO2 incubator in an assay buffer containing HBSS+Ca/Mg+5% FBS. […] Fluorecence was quantified with a fluorescent microtiter plate reader. The % specific lysis was calculated as (Sample fluorescence-spontaneous fluorescence)*100/(100% fluorescence-spontaneous). 100% fluorescence was determined from wells that contained labeled target cells and detergent such at 0.1% Tween-20 or Triton X-100. Spontaneous fluorescence was determined from wells that contained assay buffer and target cells but not effector cells.

[2] = test system: breast cancer cell line MDA-MB-231; assay: Herceptin-mediated ADCC of MDA-MB-231 cells by PBMC effector cells; details: PBMCs activated with the ADCC enhancer; FIG. 3
Protocol: as §1

K562 target cells = assay: NK assay: lysis of Calcein AM labeled K562 target cells by PBMCs stimulated with the ADCC enhancer; details: FIG. 1
Protocol: as §1, with “cells. […]” for “cells.”

[3] = test system: rituximab-coated HS-Sultan cells; assay: Rituximab-mediated ADCC of HS-Sultan cells with PBMCs from FcγR-genotyped donors; details: for rituximab-mediated ADCC, specific lysis: ratio 100:1, FIG. 5; for baseline ADCC (percent specific lysis): buffer control
Protocol: Percent specific lysis is shown for Rituxan-coated HS-Sultan cells incubated with PBMC effector cells at an E:T ratio of 50:1. PBMCs from a patient with the high affinity genotype FcgR2a131 H/H and FcgR3a V/V (solid rectangles) or a patient with the lower affinity genotype FcgR2a131 […] and FcgR3a V/F (open rectangles) were evaluated for ADCC after stimulation with buffer control (baseline) or stimulation with 500 nM ADCC enhancer.
ADCC is mediated through immune effector cells included NK cells that engage the Fc portion of the monoclonal antibody through specific receptors. Patients with single nucleotide polymorphisms in these receptors such as FcRgamma3a position 158 and FcRgamma2a position 131 have a poorer clinical prognosis presumably from poor ADCC due to a lower affinity of the receptor for the monoclonal antibody. […] To determine if this common polymorphism affects the baseline antibody-dependent cellular cytoxicity (ADCC) response and/or response to the ADCC enhancer molecule of the present invention (Compound VTX-2337), PBMCs from donors were genotyped for the two alleles encoding the F and V isoforms, respectively, and tested in vitro. We analyzed rituximab-mediated ADCC using unstimulated PBMC or VTX-2337-stimulated PBMC from 15 donors, including 10 donors with FF or FV phenotype and 5 donors with VV phenotype.
Blood was collected from healthy donors and PBMCs were isolated using a Ficoll gradient. PBMCs were activated by culturing them in the presence of 500 nM VTX-2337 at 37° C. in a humidified 5%CO2 incubator for 48 hours. Activated PBMCs were then incubated with rituximab-coated HS-Sultan cells loaded at a ratio of 100:1 for 4 hours. Lysis was determined by measuring release of the fluorescent dye Calcein AM from the HS-Sultan cells.

Compound | cell killing of Herceptin coated SKBR3 cells [1] [%] | cell killing of Herceptin coated MDA-MB-231 cells [2] | lysis of K562 target cells (K562 target cells; PBMCs stimulated with 167 nM ADCC enhancer) | lysis of K562 target cells (K562 target cells; PBMCs stimulated with 500 nM ADCC enhancer) | rituximab-mediated ADCC, specific lysis ([3]; PBMC from high affinity VV donors stimulated with 500 nM VTX-2337 for 48 hours) [%] | rituximab-mediated ADCC, specific lysis ([3]; PBMC from low affinity FF/FV donors stimulated with 500 nM VTX-2337 for 48 hours) [%] | ADCC (percent specific lysis) ([3]; patient with low affinity genotype, PBMCs stimulated with 500 nM ADCC enhancer, Rituxan-coated targets, E:T 50:1, FIG. 4) [%] | baseline ADCC (percent specific lysis) ([3]; patient with high affinity genotype, E:T 50:1, FIG. 4) | baseline ADCC (percent specific lysis) ([3]; patient with lower affinity genotype, E:T 50:1, FIG. 4) [%] | rituximab-mediated ADCC, specific lysis ([3]; unstimulated PBMC from FF/FV donors) [%] | rituximab-mediated ADCC, specific lysis ([3]; unstimulated PBMC from VV donors) [%]
CCCN(CCC)C(=O)C1=Cc2ccc(-c3ccc(C(=O)N4CCCC4)cc3)cc2N=C(N)C1 [ADCC enhancer, {2-amino-8-[4-(pyrrolidinylcarbonyl)phenyl]-(3H-benzo[f]azepin-4-yl)}-N,N-dipropylcarboxamide] | > 80 | 40-60% | up to 45% | greater than 90% | 55.5±2.6 | 40.0±4.1 | 30 | – | – | – | –
Rituxan: monoclonal antibody against the protein CD20 | – | – | – | – | – | – | – | approximately 30% | 10 | 20.5±2.5 | 31.7±2.9
